Tested on: melanoma B16 tumors overexpressing OVA antigen (B16-OVA)
Settings: mouse, in vivo

NS(=O)(=O)OC[C@@H]1C[C@H](n2ccc3c(N[C@H]4CCc5ccccc54)ncnc32)C[C@@H]1O [pevonedistat, ((1S,2S,4S)-4-(4-(((S)-2,3-dihydro-1H-inden-1-yl)amino)-7H-pyrrolo[2,3-d]pyrimidin-7-yl)-2-hydroxycyclopentyl) methyl sulfamate]
survival: significantly prolonged survival
